Calls of active or inactive are those of the source. No cut-off for these calls is given here.
How the values were obtained:
Mus musculus [1] = assay: Anti-alzheimer activity against 5 month old APP/PS1 transgenic mouse model assessed as decrease in restlessness at 2 to 10 mg/kg, po administered 4 times per week for 4 weeks; type: functional, organism-based; conditions: dose 2-10 mg/kg
Mus musculus [2] = assay: Anti-alzheimer activity against 8 month old 3xTg mouse model assessed as decrease in anxiety level at 2 to 10 mg/kg, po administered 4 times per week for 4 weeks; type: functional, organism-based; conditions: dose 2-10 mg/kg
Mus musculus [3] = assay: Downregulation of RIPK1 phosphorylation in 3xTg mouse hippocampus at 2 to 10 mg/kg, po by immunohistochemistry analysis; type: functional, organism-based; conditions: dose 2-10 mg/kg
Cytochrome P450 3A4 = Cytochrome P450 3A4 (Homo sapiens, UniProt P08684); assay: Inhibition of CYP3A4 (unknown origin) using midazolam as substrate incubated for 10 mins in presence of NADPH by LC-MS/MS analysis; type: ADME
Cytochrome P450 3A4, sequence (P08684 whole entry): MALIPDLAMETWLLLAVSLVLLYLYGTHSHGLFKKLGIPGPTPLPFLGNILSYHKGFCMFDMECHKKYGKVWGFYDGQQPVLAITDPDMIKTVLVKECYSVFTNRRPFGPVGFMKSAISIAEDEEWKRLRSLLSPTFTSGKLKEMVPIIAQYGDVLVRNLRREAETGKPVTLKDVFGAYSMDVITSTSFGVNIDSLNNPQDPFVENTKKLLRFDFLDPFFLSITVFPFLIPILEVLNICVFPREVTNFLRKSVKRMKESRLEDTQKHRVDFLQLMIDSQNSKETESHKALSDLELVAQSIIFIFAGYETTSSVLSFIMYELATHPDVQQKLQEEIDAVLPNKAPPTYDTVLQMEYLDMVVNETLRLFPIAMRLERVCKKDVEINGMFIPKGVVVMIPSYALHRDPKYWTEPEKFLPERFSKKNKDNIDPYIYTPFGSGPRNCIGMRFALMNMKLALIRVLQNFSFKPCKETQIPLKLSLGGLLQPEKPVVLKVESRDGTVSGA

BV-2 [4] = assay: Anti-inflammatory activity against LPS/zVAD treated mouse BV-2 cells assessed as decrease in IL-1beta release at 100 nM by ELISA; type: functional, cell-based
Mus musculus [5] = assay: Anti-alzheimer activity in 8 month old 3xTg mouse model assessed as reversal of transcriptomic changes in Plxnd1 at 10 mg/kg, po; type: functional, organism-based
Mus musculus [6] = assay: Anti-alzheimer activity against 8 month old 3xTg mouse model assessed as improved cognitive ability at 2 mg/kg, po administered 4 times per week for 4 weeks; type: functional, organism-based
Microglia [7] = assay: Anti-necroptosis activity in LPS/zVAD stimulated mouse primary microglia overexpressed with MAP4K4 assessed as reversal of mitochondrial swelling by TEM analysis; type: functional, cell-based
[8] = target: ALK tyrosine kinase receptor (Homo sapiens, UniProt Q9UM73); assay: Inhibition of ALK (unknown origin) at 1 uM
ALK tyrosine kinase receptor, sequence (Q9UM73 19-1620 limits assumed): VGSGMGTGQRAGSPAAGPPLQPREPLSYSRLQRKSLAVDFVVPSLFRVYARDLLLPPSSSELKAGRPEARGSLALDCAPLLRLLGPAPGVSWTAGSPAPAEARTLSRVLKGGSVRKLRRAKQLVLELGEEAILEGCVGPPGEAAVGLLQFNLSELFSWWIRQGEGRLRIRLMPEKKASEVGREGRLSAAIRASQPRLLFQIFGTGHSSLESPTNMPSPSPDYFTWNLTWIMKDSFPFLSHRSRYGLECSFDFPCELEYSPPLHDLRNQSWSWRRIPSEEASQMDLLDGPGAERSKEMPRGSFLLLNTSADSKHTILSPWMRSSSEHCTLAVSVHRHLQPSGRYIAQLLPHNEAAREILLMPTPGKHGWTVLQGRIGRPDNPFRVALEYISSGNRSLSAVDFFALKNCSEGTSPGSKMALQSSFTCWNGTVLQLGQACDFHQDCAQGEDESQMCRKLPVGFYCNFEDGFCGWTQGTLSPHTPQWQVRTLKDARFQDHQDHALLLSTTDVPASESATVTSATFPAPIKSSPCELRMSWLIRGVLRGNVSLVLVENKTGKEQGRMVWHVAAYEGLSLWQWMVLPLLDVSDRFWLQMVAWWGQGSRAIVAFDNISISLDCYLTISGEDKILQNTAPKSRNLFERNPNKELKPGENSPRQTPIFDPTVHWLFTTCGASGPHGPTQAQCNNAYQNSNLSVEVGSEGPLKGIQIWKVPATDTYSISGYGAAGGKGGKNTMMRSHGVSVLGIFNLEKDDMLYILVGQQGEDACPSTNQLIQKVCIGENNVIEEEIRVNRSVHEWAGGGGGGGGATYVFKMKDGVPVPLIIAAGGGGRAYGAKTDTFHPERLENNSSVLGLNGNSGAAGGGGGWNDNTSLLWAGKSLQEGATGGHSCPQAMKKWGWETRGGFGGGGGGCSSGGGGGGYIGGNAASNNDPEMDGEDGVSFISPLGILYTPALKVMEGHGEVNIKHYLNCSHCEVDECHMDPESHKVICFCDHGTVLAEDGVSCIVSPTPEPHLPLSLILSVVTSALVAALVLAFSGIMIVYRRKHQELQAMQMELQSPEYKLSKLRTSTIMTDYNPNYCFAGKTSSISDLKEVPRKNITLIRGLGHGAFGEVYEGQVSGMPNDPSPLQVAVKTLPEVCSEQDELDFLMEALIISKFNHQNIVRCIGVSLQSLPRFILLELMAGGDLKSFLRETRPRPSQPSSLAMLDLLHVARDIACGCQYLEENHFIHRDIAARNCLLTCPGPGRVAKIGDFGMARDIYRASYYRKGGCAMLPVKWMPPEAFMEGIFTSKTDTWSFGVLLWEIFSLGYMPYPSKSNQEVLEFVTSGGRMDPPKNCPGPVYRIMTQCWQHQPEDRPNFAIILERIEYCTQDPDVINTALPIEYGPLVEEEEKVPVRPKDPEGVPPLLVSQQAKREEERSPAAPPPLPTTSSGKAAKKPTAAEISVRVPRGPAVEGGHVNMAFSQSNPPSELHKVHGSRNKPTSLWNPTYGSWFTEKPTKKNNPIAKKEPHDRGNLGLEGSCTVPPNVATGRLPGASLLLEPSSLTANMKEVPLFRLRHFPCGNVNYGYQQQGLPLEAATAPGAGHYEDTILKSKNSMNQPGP

Mus musculus [9] = assay: Anti-alzheimer activity against 8 month old 3xTg mouse model assessed as reduction in Tau aggregation at 2 to 10 mg/kg, po; type: functional, organism-based; conditions: dose 2-10 mg/kg
Mus musculus [10] = assay: Anti-alzheimer activity against 5 month old APP/PS1 transgenic mouse model assessed as decrease in anxiety level at 2 to 10 mg/kg, po administered 4 times per week for 4 weeks; type: functional, organism-based; conditions: dose 2-10 mg/kg
Microglia [11] = assay: Anti-necroptosis activity in LPS/zVAD stimulated mouse primary microglia assessed as reversal of severe membrane disruption by TEM analysis; type: functional, cell-based
Cytochrome P450 2B6 = Cytochrome P450 2B6 (Homo sapiens, UniProt P20813); assay: Inhibition of CYP2B6 (unknown origin) incubated for 10 mins in presence of NADPH by LC-MS/MS analysis; type: ADME
Cytochrome P450 2B6, sequence (P20813 whole entry): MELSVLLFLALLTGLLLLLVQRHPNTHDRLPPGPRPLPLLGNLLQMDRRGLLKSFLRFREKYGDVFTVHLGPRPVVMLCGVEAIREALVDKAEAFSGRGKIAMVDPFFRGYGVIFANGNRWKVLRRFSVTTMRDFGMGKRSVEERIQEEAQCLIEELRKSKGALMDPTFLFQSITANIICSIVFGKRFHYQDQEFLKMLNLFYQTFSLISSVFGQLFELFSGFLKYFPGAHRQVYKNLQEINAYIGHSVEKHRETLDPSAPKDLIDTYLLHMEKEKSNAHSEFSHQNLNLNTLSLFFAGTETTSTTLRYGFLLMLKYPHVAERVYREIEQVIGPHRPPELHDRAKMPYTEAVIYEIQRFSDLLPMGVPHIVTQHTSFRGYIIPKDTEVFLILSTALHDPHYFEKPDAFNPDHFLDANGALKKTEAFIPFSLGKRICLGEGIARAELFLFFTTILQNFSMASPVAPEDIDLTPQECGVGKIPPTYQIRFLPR

Microglia [12] = assay: Anti-necroptosis activity in LPS/zVAD stimulated mouse primary microglia overexpressed with RIPK1 assessed as reversal of mitochondrial swelling by TEM analysis; type: functional, cell-based
Microglia [13] = assay: Anti-necroptosis activity in LPS/zVAD stimulated mouse primary microglia assessed as reversal of mitochondrial swelling by TEM analysis; type: functional, cell-based
Cytochrome P450 2D6 = Cytochrome P450 2D6 (Homo sapiens, UniProt P10635); assay: Inhibition of CYP2D6 (unknown origin) using dextromethorphan as substrate incubated for 10 mins in presence of NADPH by LC-MS/MS analysis; type: ADME
Cytochrome P450 2D6, sequence (P10635 whole entry): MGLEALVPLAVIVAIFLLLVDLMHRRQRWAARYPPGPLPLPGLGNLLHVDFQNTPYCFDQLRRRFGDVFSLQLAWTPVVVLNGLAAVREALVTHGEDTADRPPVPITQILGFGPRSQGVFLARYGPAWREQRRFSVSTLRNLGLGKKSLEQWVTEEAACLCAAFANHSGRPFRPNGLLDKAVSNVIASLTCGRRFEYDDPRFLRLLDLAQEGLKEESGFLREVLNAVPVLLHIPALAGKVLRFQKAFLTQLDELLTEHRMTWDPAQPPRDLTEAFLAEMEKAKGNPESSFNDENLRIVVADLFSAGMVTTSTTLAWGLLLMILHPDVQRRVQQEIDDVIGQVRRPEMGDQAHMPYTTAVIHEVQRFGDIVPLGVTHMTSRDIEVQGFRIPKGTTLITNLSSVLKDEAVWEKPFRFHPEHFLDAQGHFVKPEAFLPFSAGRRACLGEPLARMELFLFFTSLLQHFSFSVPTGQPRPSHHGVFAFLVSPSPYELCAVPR

[14] = Unbound plasma protein binding in mouse incubated for 24 hrs by HPLC based equilibrium dialysis method; type: ADME, cell-free
BV-2 [15] = assay: Anti-necroptosis activity in mouse BV-2 cells assessed as reduction in p65 expression at 100 nM by confocal microscopic analysis; type: functional, cell-based
Mus musculus [16] = assay: Anti-alzheimer activity against 5 month old APP/PS1 transgenic mouse model assessed as increase in searching frequency towards annulus at 10 mg/kg, po administered 4 times per week for 4 weeks; type: functional, organism-based
[17] = AUC(0 to t) in C57BL/6 mouse plasma at 10 mg/kg, po measured upto 24 hrs by LC-MS/MS analysis; type: ADME, organism-based
[18] = Half-life in C57BL/6 mouse brain at 10 mg/kg, po measured upto 24 hrs by LC-MS/MS analysis; type: ADME, organism-based
Mus musculus [19] = assay: Anti-alzheimer activity in 8 month old 3xTg mouse model assessed as reversal of transcriptomic changes in Pttg1 at 10 mg/kg, po; type: functional, organism-based
Mus musculus [20] = assay: Anti-alzheimer activity against 8 month old 3xTg mouse model assessed as increase in searching frequency towards annulus at 10 mg/kg, po administered 4 times per week for 4 weeks; type: functional, organism-based
BV-2 [21] = assay: Anti-inflammatory activity against LPS/zVAD treated mouse BV-2 cells assessed as decrease in TNFalpha release at 100 nM by ELISA; type: functional, cell-based
Mus musculus [22] = assay: Anti-alzheimer activity in 8 month old 3xTg mouse model assessed as reversal of transcriptomic changes in Lamc2 at 10 mg/kg, po; type: functional, organism-based
Cytochrome P450 2C19 = Cytochrome P450 2C19 (Homo sapiens, UniProt P33261); assay: Inhibition of CYP2C19 (unknown origin) using S-mephenytoin as substrate incubated for 10 mins in presence of NADPH by LC-MS/MS analysis; type: ADME
Cytochrome P450 2C19, sequence (P33261 whole entry): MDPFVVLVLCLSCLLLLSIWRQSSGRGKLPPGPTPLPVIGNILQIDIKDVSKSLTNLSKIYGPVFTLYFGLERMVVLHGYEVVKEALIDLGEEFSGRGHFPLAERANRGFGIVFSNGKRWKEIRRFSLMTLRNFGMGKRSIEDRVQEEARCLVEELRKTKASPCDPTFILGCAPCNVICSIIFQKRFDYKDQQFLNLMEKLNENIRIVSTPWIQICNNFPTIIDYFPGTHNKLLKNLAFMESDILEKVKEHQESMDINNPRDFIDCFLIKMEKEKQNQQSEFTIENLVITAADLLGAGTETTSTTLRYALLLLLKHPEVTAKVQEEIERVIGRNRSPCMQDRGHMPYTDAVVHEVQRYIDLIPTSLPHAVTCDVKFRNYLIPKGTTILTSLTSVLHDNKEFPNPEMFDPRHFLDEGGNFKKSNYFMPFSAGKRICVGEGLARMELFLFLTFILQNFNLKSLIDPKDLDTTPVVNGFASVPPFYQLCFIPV

Mus musculus [23] = assay: Anti-alzheimer activity against 5 month old APP/PS1 transgenic mouse model assessed as improved cognitive ability at 10 mg/kg, po administered 4 times per week for 4 weeks; type: functional, organism-based
Microglia [24] = assay: Anti-necroptosis activity in LPS/zVAD stimulated mouse primary microglia overexpressed with RIPK1 assessed as reversal of translucent cytoplasm by TEM analysis; type: functional, cell-based
BV-2 [25] = assay: Cytotoxicity against mouse BV-2 cells at 10 uM; type: toxicity, cell-based; conditions: bv-2, 10 µM
[26] = Half-life in C57BL/6 mouse plasma at 10 mg/kg, po measured upto 24 hrs by LC-MS/MS analysis; type: ADME, organism-based
Microglia [27] = assay: Anti-necroptosis activity in LPS/zVAD stimulated mouse primary microglia overexpressed with ALK assessed as reversal of translucent cytoplasm by TEM analysis; type: functional, cell-based
Mus musculus [28] = assay: Downregulation of MAP4K4 phosphorylation in 3xTg mouse hippocampus at 2 to 10 mg/kg, po by immunohistochemistry analysis; type: functional, organism-based; conditions: dose 2-10 mg/kg
Mus musculus [29] = assay: Anti-alzheimer activity against 8 month old 3xTg mouse model assessed as decrease in restlessness at 2 to 10 mg/kg, po administered 4 times per week for 4 weeks; type: functional, organism-based; conditions: dose 2-10 mg/kg
Mus musculus [30] = assay: Anti-alzheimer activity in 8 month old 3xTg mouse model assessed as reversal of transcriptomic changes in Hba-a1 at 10 mg/kg, po; type: functional, organism-based
[31] = Metabolic stability in human liver microsomes assessed as half-life at 1 uM measured upto 60 mins in presence of NADPH and UDPGA by LC-MS/MS analysis; type: ADME, Microsome
Mus musculus [32] = assay: Anti-alzheimer activity against 5 month old APP/PS1 transgenic mouse model assessed as […] at 10 mg/kg, po administered 4 times per week for 4 weeks measured after 2 days; type: functional, organism-based; conditions: time 30.0 day
[33] = Tmax in C57BL/6 mouse brain at 10 mg/kg, po measured upto 24 hrs by LC-MS/MS analysis; type: ADME, organism-based
[34] = Cmax in C57BL/6 mouse brain at 10 mg/kg, po measured upto 24 hrs by LC-MS/MS analysis; type: ADME, organism-based
Microglia [35] = assay: Anti-necroptosis activity in LPS/zVAD stimulated mouse primary microglia transfected with flag-tagged RIPK1 plasmid assessed as protection of microglia cells at 100 nM; type: functional, cell-based
[36] = Cmax in C57BL/6 mouse plasma at 10 mg/kg, po measured upto 24 hrs by LC-MS/MS analysis; type: ADME, organism-based

## Cc1cc(F)cc(Nc2ncc(Nc3ccc(SC(F)(F)F)cc3)cc2C(N)=O)c1
Mus musculus [1]
  Activity: Active
Mus musculus [2]
  Activity: Active
Mus musculus [3]
  Activity: Active; Activity More Potent Than Nec-1
Cytochrome P450 3A4
  IC50: > 10 µM
BV-2 [4]
  Activity: Active
Mus musculus [5]
  Activity: Active
Mus musculus [6]
  Activity: Active; Activity More Potent Than Nec-1
Microglia [7]
  Activity: inactive
[8]
  inhibition: Active
Mus musculus [9]
  Activity: Active
Mus musculus [10]
  Activity: Active
Microglia [11]
  Activity: Active
Cytochrome P450 2B6
  IC50: 5.2 µM
Microglia [12]
  Activity: inactive
Microglia [13]
  Activity: Active
Cytochrome P450 2D6
  IC50: > 10 µM
[14]
  Fu: 0.8%
BV-2 [15]
  Activity: Active
Mus musculus [16]
  Activity: Active
[17]
  AUC(0-t) at 24 h: 10900 ng·h/mL
[18]
  half-life: 508 min
Mus musculus [19]
  Activity: Active
Mus musculus [20]
  Activity: Active
BV-2 [21]
  Activity: Active
Mus musculus [22]
  Activity: Active
Cytochrome P450 2C19
  IC50: 8.3 µM
Mus musculus [23]
  Activity: Active
Microglia [24]
  Activity: inactive
BV-2 [25]
  Activity: Toxic
[26]
  half-life: 797 min
Microglia [27]
  Activity: inactive
Mus musculus [28]
  Activity: Active; Activity More Potent Than Nec-1
Mus musculus [29]
  Activity: Active
Mus musculus [30]
  Activity: Active
[31]
  half-life at 1 µM: 193 min
Mus musculus [32]
  Activity: Active
[33]
  Tmax: 5.97 h
[34]
  Cmax: 290 ng/mL
Microglia [35]
  Activity: inactive
[36]
  Cmax: 1180 ng/mL

Source: ChEMBL document CHEMBL6074641, “Polypharmacological Drug Design Guided by Integrating Phenotypic and Restricted Fragment Docking Strategies” (J Med Chem, 2024)
